Results published in patent publication EP4603105A1, “PHARMACEUTICAL COMPOSITION CONTAINING CYCLIC COMPOUND HAVING SELECTIVE KRAS INHIBITORY EFFECT AGAINST HRAS AND NRAS” (CHUGAI SEIYAKU KABUSHIKI KAISHA, priority 2022, dated 2024).
Where two headings read alike, the source gives them in different places.

Tests used:
[1] = molecular target: GDP-bound KRAS wild-type protein (Homo sapiens, UniProt P01116); experiment: Binding to KRAS by surface plasmon resonance (SPR), dissociation constant KD
Outline: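 Recombinant RAS proteins bearing a biotinylated Avi tag and loaded with GDP served as the captured ligand, recaptured fresh every cycle. Binding responses were referenced to an uncoated surface and a buffer-only blank cycle. Dissociation constants were obtained by 1:1 model fitting at 30°C.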

[2] = molecular target: GDP-bound NRAS wild-type protein (Homo sapiens, UniProt P01111); experiment: Binding to NRAS by surface plasmon resonance (SPR), KD and KD ratio to KRAS
Outline: (§1)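 Running buffer contained 10 µM GDP and 10 mM MgCl2 to keep RAS in the GDP state, with 4% DMSO at pH 7.4. Compounds were flowed at 100 µL/min in 75 s steps of rising concentration over captured biotin-Avi RAS at 30°C. Sensorgrams were fitted 1:1 for KD.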

[3] = molecular target: HRAS wild-type protein (Homo sapiens, UniProt P01112); experiment: Binding to HRAS by surface plasmon resonance (SPR), KD and KD ratio to KRAS
Outline: as §1

[4] = tested on: human lung cancer strain NCI-H441; experiment: NCI-H441 cell proliferation inhibitory activity (CellTiter-Glo, 4 days); assay type: cell-based; settings: read-out: NCl-H441 IC50
Outline: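 Step one: dispense the test compound in serial DMSO dilutions. Step three: add the reagent and measure […].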

[5] = ratio of KD for GDP-bound NRAS wild-type protein to KD for KRAS
[6] = ratio of KD for HRAS wild-type protein to KD for KRAS
[7] = Single Cycle Kinetics, 1:1 binding model
[8] = ratio of KD with respect to GDP-bound NRAS wild-type protein to KD with respect to KRAS
[9] = ratio of KD with respect to HRAS wild-type protein to KD with respect to KRAS
[10] = 50% proliferation inhibitory concentration, four days

Chain of HRAS wild-type protein (P01112 whole entry): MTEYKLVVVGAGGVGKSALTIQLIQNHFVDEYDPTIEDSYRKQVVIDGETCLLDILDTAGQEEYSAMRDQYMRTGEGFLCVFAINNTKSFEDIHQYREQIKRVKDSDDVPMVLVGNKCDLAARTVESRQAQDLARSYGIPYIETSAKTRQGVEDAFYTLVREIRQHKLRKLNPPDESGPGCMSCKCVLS
Chain of GDP-bound NRAS wild-type protein (P01111 whole entry): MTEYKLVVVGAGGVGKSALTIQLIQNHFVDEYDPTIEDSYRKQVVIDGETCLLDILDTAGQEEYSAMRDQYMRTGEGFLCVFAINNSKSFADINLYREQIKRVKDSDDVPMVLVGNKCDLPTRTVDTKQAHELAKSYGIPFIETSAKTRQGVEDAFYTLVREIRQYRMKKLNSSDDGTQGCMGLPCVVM
Chain of GDP-bound KRAS wild-type protein (P01116 1-188 isoform P01116-2): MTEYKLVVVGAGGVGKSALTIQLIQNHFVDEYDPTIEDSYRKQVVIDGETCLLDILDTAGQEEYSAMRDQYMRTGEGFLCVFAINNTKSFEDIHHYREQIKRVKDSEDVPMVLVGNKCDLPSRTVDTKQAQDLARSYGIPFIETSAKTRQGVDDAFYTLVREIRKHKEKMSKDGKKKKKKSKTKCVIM

SMILES	Kd ([1]; 1:1 binding model) [nM]	NRAS /KRAS [2, 5]	HRAS /KRAS [3, 6]	IC50 ([4]; NCI-H441 cells, 4 days) [nM]	Kd [1, 7] [nM]	NRAS /KRAS [2, 8]	HRAS /KRAS [3, 9]	IC50 [4, 10] [nM]	Kd ([1]; Single Cycle Kinetics) [nM]
CCOC[C@H]1C(=O)N[C@@H]([C@@H](C)CC)C(=O)N(C)CC(=O)N(C)[C@H]2C/C=C\CCN(C2=O)[C@@H](Cc2ccc(C)cc2)C(=O)N(C)CC(=O)N[C@@H](CCc2cc(F)c(C(F)(F)F)c(F)c2)C(=O)N2C[C@@H](C)C[C@H]2C(=O)NC2(CC(C)(C)C2)C(=O)N(C)[C@@H](C2CCCC2)C(=O)N(C)[C@H](C(=O)N(C)C)CC(=O)N1C [PP2439]	0.12	A (a compound having 10 or more and less than 20 is denoted as A)	A (a compound having 10 or more and less than 20 is denoted as A)	6.6	–	–	–	–	–
CCO[C@@H]1C[C@H]2C(=O)NC3(CCC3)C(=O)N(C)[C@@H](C3CCCC3)C(=O)N(C)[C@H](C(=O)N(C)C)CC(=O)N(C)[C@@H](CC3CC3)C(=O)N[C@@H]([C@@H](C)CC)C(=O)N(C)CC(=O)N(C)[C@H]3C/C=C\CCN(C3=O)[C@@H](Cc3ccc(C)cc3)C(=O)N(C)CC(=O)N[C@@H](CCc3cc(F)c(C(F)(F)F)c(F)c3)C(=O)N2C1 [PP1407]	–	–	–	–	0.074	A (a compound having 10 or more and less than 20 is denoted as A)	A (a compound having 10 or more and less than 20 is denoted as A)	18.7	–
CCO[C@@H]1C[C@H]2C(=O)OC3(CCC3)C(=O)N(C)[C@@H](C3CCCC3)C(=O)N(C)[C@H](C(=O)N(C)C)CC(=O)N(C)[C@@H]([C@@H](C)OC)C(=O)N[C@@H]([C@@H](C)CC)C(=O)N(C3CC3)CC(=O)N(C)[C@H]3C/C=C\CCN(C3=O)[C@@H](Cc3ccc(C(F)(F)F)cc3)C(=O)N(C)CC(=O)N[C@@H](CCc3ccc(C(F)(F)F)c(OC)c3)C(=O)N2C1 [PP3375]	–	A (a compound having 10 or more and less than 20 is denoted as A)	B (a compound having 3 or more and less than 10 is denoted as B)	6	–	–	–	–	0.41
CCOC[C@H]1C(=O)N[C@@H]([C@@H](C)CC)C(=O)N(C)CC(=O)N(C)[C@H]2C/C=C\CCN(C2=O)[C@@H](CC2CCC(F)(F)CC2)C(=O)N(C)CC(=O)N[C@@H](CCc2ccc(C(F)(F)F)c(Cl)c2)C(=O)N2C[C@H](OCC)C[C@H]2C(=O)NC2(CC(C)(C)C2)C(=O)N(C)[C@@H](C(CC)CC)C(=O)N(C)[C@H](C(=O)N(C)C)CC(=O)N1C [PP2460]	0.71	A (a compound having 10 or more and less than 20 is denoted as A)	A (a compound having 10 or more and less than 20 is denoted as A)	18.7	–	–	–	–	–
CCO[C@@H]1C[C@H]2C(=O)NC3(CCC3)C(=O)N(C)[C@@H](C3CCCC3)C(=O)N(C)[C@H](C(=O)N3CCOCC3)CC(=O)N(C)[C@@H](CC3CCCC3)C(=O)N[C@@H]([C@@H](C)CC)C(=O)N(C)CC(=O)N(C)[C@H]3C/C=C\CCN(C3=O)[C@@H](Cc3ccc(C(F)(F)F)cc3)C(=O)N(C)CC(=O)N[C@@H](CCc3cc(F)c(C(F)(F)F)c(F)c3)C(=O)N2C1 [PP1393]	–	–	–	–	0.19	A (a compound having 10 or more and less than 20 is denoted as A)	A (a compound having 10 or more and less than 20 is denoted as A)	18.2	–
CCO[C@@H]1C[C@H]2C(=O)NC3(CCC3)C(=O)N(C)[C@@H](C(CC)CC)C(=O)N(C)[C@H](C(=O)N(C)C)CC(=O)N(C)[C@@H](C)C(=O)N[C@@H]([C@@H](C)CC)C(=O)N(C)CC(=O)N(C)[C@H]3C/C=C\CCN(C3=O)[C@@H](Cc3ccc(C(F)(F)F)cc3)C(=O)N(C)CC(=O)N[C@@H](CCc3ccc4sccc4c3)C(=O)N2C1 [PP1222]	–	–	–	–	1.2	A (a compound having 10 or more and less than 20 is denoted as A)	A (a compound having 10 or more and less than 20 is denoted as A)	301	–
CCO[C@@H]1C[C@H]2C(=O)NC3(CC(C)(C)C3)C(=O)N(C)[C@@H](C(CC)CC)C(=O)N(C)[C@H](C(=O)N(C)C)CC(=O)N(C)[C@@H](C(C)C)C(=O)N[C@@H]([C@@H](C)CC)C(=O)N(C)CC(=O)N(C)[C@H]3C/C=C\CCN(C3=O)[C@@H](CC3CCC(F)(F)CC3)C(=O)N(C)CC(=O)N[C@@H](CCc3ccc(C(F)(F)F)c(OC)c3)C(=O)N2C1 [PP2477]	1.8	A (a compound having 10 or more and less than 20 is denoted as A)	A (a compound having 10 or more and less than 20 is denoted as A)	127	–	–	–	–	–
CCC[C@H]1C(=O)N[C@@H]([C@@H](C)CC)C(=O)N(C)CC(=O)N(C)[C@H]2C/C=C\CCN(C2=O)[C@@H](Cc2ccc(C)cc2)C(=O)N(C)CC(=O)N[C@@H](CCc2cc(F)c(C(F)(F)F)c(F)c2)C(=O)N2C[C@H](OCC)C[C@H]2C(=O)NC2(CC(C)(C)C2)C(=O)N(C)[C@@H](CC2CCC2)C(=O)N(C)[C@H](C(=O)N(C)C)CC(=O)N1C [PP2751]	0.85	A (a compound having 10 or more and less than 20 is denoted as A)	A (a compound having 10 or more and less than 20 is denoted as A)	39.3	–	–	–	–	–
CCCOC[C@H]1C(=O)N[C@@H]([C@@H](C)CC)C(=O)N(C)CC(=O)N(C)[C@H]2C/C=C\CCN(C2=O)[C@@H](Cc2ccc(C(F)(F)F)cc2)C(=O)N(C)CC(=O)N[C@@H](CCc2cc(F)c(C(F)(F)F)c(F)c2)C(=O)N2C[C@H](OCC)C[C@H]2C(=O)NC2(CCCC2)C(=O)N(C)[C@@H](C2CCCC2)C(=O)N(C)[C@H](C(=O)N2CCCC2)CC(=O)N1C [PP1399]	–	–	–	–	0.19	A (a compound having 10 or more and less than 20 is denoted as A)	A (a compound having 10 or more and less than 20 is denoted as A)	18.8	–
CCC(CC)[C@H]1C(=O)N(C)[C@H](C(=O)N(C)C)CC(=O)N(C)[C@@H](CC2CC2)C(=O)N[C@@H]([C@@H](C)CC)C(=O)N(C)CC(=O)N(C)[C@H]2C/C=C\CCN(C2=O)[C@@H](CC2CCC(F)(F)CC2)C(=O)N(C)CC(=O)N[C@@H](CCc2ccc(C(F)(F)F)c(OC)c2)C(=O)N2C[C@@H](C)C[C@H]2C(=O)NC2(CC(C)(C)C2)C(=O)N1C [PP2494]	1.8	A (a compound having 10 or more and less than 20 is denoted as A)	A (a compound having 10 or more and less than 20 is denoted as A)	39.6	–	–	–	–	–
CCC[C@H]1C(=O)N[C@@H](C2CCCC2)C(=O)N(C)CC(=O)N(C)[C@H]2C/C=C\CCN(C2=O)[C@@H](Cc2ccc(C(F)F)cc2)C(=O)N(C)CC(=O)N[C@@H](CCc2cc(F)c(C(F)(F)F)c(OC)c2)C(=O)N2C[C@H](OC(C)C)C[C@H]2C(=O)N(C)C2(CCC2)C(=O)N(C)[C@@H](C(CC)CC)C(=O)N(C)[C@H](C(=O)N(C)C)CC(=O)N1C [PP3499]	–	A (a compound having 10 or more and less than 20 is denoted as A)	B (a compound having 3 or more and less than 10 is denoted as B)	6.2	–	–	–	–	0.083
CCO[C@@H]1C[C@H]2C(=O)NC3(CC(C)(C)C3)C(=O)N(C)[C@@H](C3CCCC3)C(=O)N(C)[C@H](C(=O)N(C)C)CC(=O)N(C)[C@@H]([C@@H](C)OC)C(=O)N[C@@H]([C@@H](C)CC)C(=O)N3CCC[C@H]3C(=O)N(C)[C@H]3C/C=C\CCN(C3=O)[C@@H](Cc3ccc(C)cc3)C(=O)N(C)CC(=O)N[C@@H](CCc3ccc(C(F)(F)F)c(Cl)c3)C(=O)N2C1 [PP3215]	–	A (a compound having 10 or more and less than 20 is denoted as A)	A (a compound having 10 or more and less than 20 is denoted as A)	109	–	–	–	–	0.68
CCC[C@H]1C(=O)N[C@@H]([C@@H](C)CC)C(=O)N(C)CC(=O)N(C)[C@H]2C/C=C\CCN(C2=O)[C@@H](Cc2ccc(C(F)(F)F)cc2)C(=O)N(C)CC(=O)N[C@@H](CCc2cc(F)c(C(F)(F)F)c(F)c2)C(=O)N2CC3(CC3)C[C@H]2C(=O)NC2(CCC2)C(=O)N(C)[C@@H](C(CC)CC)C(=O)N(C)[C@H](C(=O)N(C)C)CC(=O)N1C [PP3402]	–	AA (a compound having 20 or more is denoted as AA)	B (a compound having 3 or more and less than 10 is denoted as B)	10.1	–	–	–	–	0.31
CCO[C@@H]1C[C@H]2C(=O)OC3(CCC3)C(=O)N(C)[C@@H](C3CCCC3)C(=O)N(C)[C@H](C(=O)N(C)C)CC(=O)N(C)[C@@H]([C@H](C)OC)C(=O)N[C@@H]([C@@H](C)CC)C(=O)N(C)CC(=O)N(C)[C@H]3C/C=C\CCN(C3=O)[C@@H](Cc3ccc(C)cc3)C(=O)N(C)CC(=O)N[C@@H](CCc3ccc(C(F)(F)F)c(OC)c3)C(=O)N2C1 [PP3397]	–	A (a compound having 10 or more and less than 20 is denoted as A)	B (a compound having 3 or more and less than 10 is denoted as B)	4.3	–	–	–	–	0.28
CCC(CC)[C@H]1C(=O)N(C)[C@H](C(=O)N(C)C)CC(=O)N(C)[C@@H](COC)C(=O)N[C@@H]([C@@H](C)CC)C(=O)N(C)CC(=O)N(C)[C@H]2C/C=C\CCN(C2=O)[C@@H](Cc2ccc(C(F)(F)F)cc2)C(=O)N(C)CC(=O)N[C@@H](CCc2ccc(Cl)c(Cl)c2)C(=O)N2C[C@H](OC3CCCC3)C[C@H]2C(=O)NC2(CC(C)(C)C2)C(=O)N1C [PP2648]	0.85	A (a compound having 10 or more and less than 20 is denoted as A)	A (a compound having 10 or more and less than 20 is denoted as A)	68.5	–	–	–	–	–
